Measured values taken from ChEMBL document CHEMBL1127160, “Phenylalkyl ketones as potent reversible inhibitors of interleukin-1 converting enzyme” (Bioorg Med Chem Lett, 1993).

What follows are compounds tested against T1, Caspase-1 (Homo sapiens, UniProt P29466) (assay: The compound was tested for its inhibitory activity against IL-1 beta converting enzyme).
T1 sequence (P29466 whole entry): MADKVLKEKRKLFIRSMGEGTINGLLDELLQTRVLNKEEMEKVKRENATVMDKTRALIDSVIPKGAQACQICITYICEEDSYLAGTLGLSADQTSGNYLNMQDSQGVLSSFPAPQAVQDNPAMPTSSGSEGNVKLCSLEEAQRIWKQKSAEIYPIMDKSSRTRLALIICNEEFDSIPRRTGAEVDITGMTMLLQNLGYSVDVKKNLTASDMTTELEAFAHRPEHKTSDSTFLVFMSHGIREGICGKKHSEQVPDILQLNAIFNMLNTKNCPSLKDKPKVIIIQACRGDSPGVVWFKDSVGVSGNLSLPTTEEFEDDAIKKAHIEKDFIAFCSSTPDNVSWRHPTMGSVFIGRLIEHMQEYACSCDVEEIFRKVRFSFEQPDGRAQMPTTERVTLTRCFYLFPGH
`CC(=O)N[C@@H](Cc1ccc(O)cc1)C(=O)N[C@H](C(=O)N[C@@H](C)C(=O)N[C@@H](CC(=O)O)C(=O)CCCCCc1ccccc1)C(C)C` gave a Ki of 0.0185 µM.
`CC(=O)N[C@@H](Cc1ccc(O)cc1)C(=O)N[C@H](C(=O)N[C@@H](C)C(=O)N[C@@H](CC(=O)O)C(=O)c1ccccc1)C(C)C` (stereo in doubt) showed a Ki of 10 µM.
`CC(=O)N[C@@H](Cc1ccc(O)cc1)C(=O)NC(C(=O)N[C@@H](C)C(=O)NC(CC(=O)O)C(C)=O)C(C)C` (single isomer, unassigned) showed a Ki of over 10 µM.
For `CC(C)[C@H](NC(=O)CCc1ccccc1)C(=O)N[C@@H](C)C(=O)N[C@@H](CC(=O)O)C(=O)CCCc1ccccc1`, the Ki was 0.1 µM.
With `CC(=O)N[C@@H](Cc1ccc(O)cc1)C(=O)N[C@H](C(=O)N[C@@H](C)C(=O)N[C@@H](CC(=O)O)C(=O)c1ccccc1)C(C)C` (stereo in doubt; 7c) the Ki was over 100 µM.
In the case of `CC(C)[C@H](NC(=O)CCc1ccccc1)C(=O)N[C@@H](C)C(=O)N[C@@H](CC(=O)O)C(=O)CCc1ccccc1`, the Ki is reported as 0.61 µM.
In the case of `CC(=O)N[C@@H](Cc1ccc(O)cc1)C(=O)N[C@H](C(=O)N[C@@H](C)C(=O)N[C@@H](CC(=O)O)C(=O)C1CCCCC1)C(C)C`, the Ki is reported as over 100 µM.
`CC(C)[C@H](NC(=O)CCc1ccccc1)C(=O)N[C@@H](C)C(=O)N[C@@H](CC(=O)O)C(=O)Cc1ccccc1` was tested, and the Ki was 3.1 µM.
With `CCC(=O)[C@H](CC(=O)O)NC(=O)[C@H](C)NC(=O)[C@@H](NC(=O)[C@H](Cc1ccc(O)cc1)NC(C)=O)C(C)C` the Ki was 4 µM.
For `CC(=O)N[C@@H](Cc1ccc(O)cc1)C(=O)N[C@H](C(=O)N[C@@H](C)C(=O)N[C@@H](CC(=O)O)C(=O)CCCCc1ccccc1)C(C)C`, the Ki was 0.042 µM.
